# Assay results published in patent US11865157B2, “Compositions and methods of targeting cancer stem cells” (University of Houston System, priority 2016, dated 2024).
# Numbered stars: 1 amine (or outer) side, 2 acyl side, 3 side chain; on linkers, the order of the positions; unused ones are H or OH. Square brackets hold non-standard residues; d marks the D form. Peptide text beside a SMILES is read from it. ξ: configuration not given here. Gly(N-piperonyl) = O=C(O)CNCc1ccc2c(c1)OCO2; X1 = CC(c1ccccc1)N(CC(=O)[*:2])[*:1]; Nlys = NCCCCNCC(=O)O; ξK = NCCCCC(N)C(=O)O; ξM = CSCCC(N)C(=O)O; Nme = COCCNCC(=O)O
# Experiments:
# Format in all cases: cell-based
# H358 cells [1] = experiment: Colony formation assay of bead-bound, unbound and unsorted fractions; conditions: 2 weeks of growth, crystal violet
# Method: A colony formation assay was performed on the untreated H358 cells and PCS2-bound and PCS2-unbound fractions to further confirm that the cells bound by PCS2 were CSCs. About 500 cells from each of the three fractions were plated into […] wells and grown for 2 weeks. The resulting colonies were then stained with crystal violet.
# A colony formation assay was performed on the untreated H358 cells and PCS2-bound and PCS2-unbound fractions to further confirm that the cells bound by PCS2 were CSCs. About 300-500 cells from each of cell group were plated into […] wells and grown for 2 weeks or until colonies were visible by eye. The resulting colonies were then stained with crystal violet for approximately 5 minutes and colonies were counted using the MOESM software program, and confirmed though microscopic counting.
# It was determined that the presence of plectin contributes to colony formation and wound healing potential of H358 cells. Plectin antibody-coated magnetic-bead bound fractions form a higher number of colonies compared to unbound and unseparated fraction in the clonogenicity assay in H358 cells The clonogenecity after plectin knockdown was then tested in H358, H460, and H2073 cells (FIG. 25C, 25D). Knockdown of plectin decreases colony formation in H358, H460 and H2073 cells. Knockdown of plectin leads to a decrease in mobility and scratch healing in H358 cells. […]
# H358 and HCC4017 cells = experiment: ALDEFluor staining of PCS2-bound and PCS2-unbound fractions
# Method: To confirm that the peptoid-bound fraction was CSCs, a subset of PCS2-bound and PCS2-unbound fractions from H358 cells were generated and stained with the ALDEFLuor kit, which produces green fluorescence when the ALDH protein is active in a cell, and DAPI, and then analyzed them under a fluorescence microscope. […] An equal number of PCS2-bead sorted cells from the H358 and HCC4017 cell lines were also treated with the Aldefluor kit and their relative fluorescence was evaluated using a spectrophotometer (FIG. 7B & C).
# ALDH+ H358 CSCs = experiment: On-bead binding of sorted ALDH+ and ALDH− H358 cells to PCS2-carrying beads
# Method: On-bead binding assay: 50 mg of peptoid-carrying tentagel beads or 1.3×10^6 of peptoid-carrying magnetic beads were equilibrated in 2 mL RPMI containing 5% FBS and 3% BSA (Sigma) for 1 hour by shaking. The beads can then be equilibrated with 5×10^6 of each cancer cell type listed above in 2 mL RPMI containing 5% FBS and 1% BSA at room temperature for 15-60 minutes for binding. The cell-bound beads are then pulled down with a magnet and washed with RPMI to cleanly harvest bound cells. Unbound cells were collected separately for further confirmations.
# To confirm the binding specificity of PCS2 to CSCs, sorted ALDH+ H358 CSCs (red stained) and ALDH− H358 cells (green stained) were exposed to PCS2-carrying beads. […] The same assay was repeated after allowing these CSC population to grow for 2 weeks, where by then the CSC percentage in the ALDH+ sorted population became low, the number of cells bound was very low (FIG. 4E), indicating PCS2 recognizes a unique target specific for CSCs, but not other cancer cells.
# [2] = system: lung cancer cell lines (HCC4017, H358, H366, H460, H1299, H2073, H1693, H1993, H1975); experiment: RT-qPCR of CSC markers and PLEC in PCS2-bead bound vs unbound fractions of lung cancer cell lines
# Method: Using the same basic approach, peptoid-bound and peptoid-unbound fractions were generated from the lung cancer cells lines HCC4017, H358, H366, H460 for the PCS2 compound, and the relative expression of CSC marker SOX2 was evaluated between each fraction.
# To confirm the binding specificity of PCS2 to CSCs, CSCs isolated from H358 cells and normal mesenchymal stem cells (MSCs) were exposed to PCS2-carrying beads as described in Example 3, and then separated by magnet into peptoid-bound and peptoid-unbound fractions (FIG. 19A). […] To further evaluate PCS2 specificity towards CSCs, HCC4017, H460, H1299, H2073, H1693, H1993, and H1975 cells were exposed to PCS2-carrying beads, and then separated by magnet into peptoid-bound and peptoid-unbound fractions. RNA from both bound and unbound fractions was harvested and analyzed by RT-qPCR to determine the relative expression of several known CSC biomarkers in each fraction was assessed, including expression of ALDH1A3 (FIG. 19B), CD133 (FIG. 19C), CD44 (FIG. 19D), and SOX2 (FIG. 19E). CD44 and SOX2 expressions were high on PCS2-coated magnetic-bead bound fractions from the almost all cell lines having higher expression of CSC biomarkers compared to the unsorted or unbound fractions confirming that the capacity of PCS2 to bind to CSCs is not exclusive to H358 cells. The correlation to ALDH1A3 and CD133 were varied, which is typical due to the high heterogeneity of CSC biomarker expressions, and there are no 100% biomarker correlations exists.
# Plectin expression was directed tested on PCS2-bound cells from H358, HCC4017, H460, H1299, H2073, H1693, H1993, H1975 cells by RT-QPCR (FIG. 22A). […] To determine if PCS2 and the plectin antibody compete for binding, the magnetic-bead binding assay was repeated in the presence of the plectin antibody. […] Since previous reports have shown cells to be sufficiently stable for further assays with plectin knock-down, plectin knockdown was conducted in H358, H1693, H1975 and H1993 cells using siRNA using the magnetic-bead binding assay described above. […] From these observations, it was concluded that plectin is the cell-surface marker that PCS2 is targeting.
# H358 cells [3] = experiment: Clonogenicity assay under treatment; conditions: 500 cells/well, 30 and 100 μM, 2 weeks
# Method: To further validate that PCS2D1 inhibiting CSCs, the effects of PCS2D1 against a stem-cell-associated phenotype were studied with regards to the capacity to form colonies from a single cell by using the clonogenicity assay. About 300 cells were plated onto 35 mm cell culture plates with either 0, 1, 10, 30, or 100 μM of PCS2D1, and allowed to grow for 2 weeks. After staining with crystal violet, both the number of colonies and the overall morphology of the colonies were evaluated.
# The clonogenicity assay was repeated with H358 cells, 500 cells/well, using 0, 10, 30 and 100 μM PCS2 treatment over 2 weeks. […] To confirm that this was due to the specific targeting on CSCs, the clonogenicity assay was performed again over 8 days, with the treatment performed from day 7 to 8 instead, to allow the colonies to establish. This was done alongside control cells plated on chamber slides and then grown under the same conditions.
# [4] = HCC4017, H460, H1299, H2073, H1693, H1993, H1975, almost all cell lines
smiles,measurement,setting,value
COCCNCC(=O)N(CCCCN)CC(=O)N(CC(=O)N(CC(=O)N(CCCCN)CC(=O)NC(CCCCN)C(=O)N[C@H](CCCCN)C(=O)NC(CCSC)C(N)=O)C(C)c1ccccc1)Cc1ccc2c(c1)OCO2 (stereo partly shown) [PCS2] (H-[Nme][Nlys][Gly(N-piperonyl)][X1][Nlys][ξK][dK][ξM]-NH2),number of colonies from bead-bound fraction vs unbound or unsorted fractions,H358 cells [1],significantly higher number of colonies
same,ALDEFluor green fluorescence of PCS2-bound fraction,"H358 and HCC4017 cells; H358, fluorescence microscope, vs unbound or untreated fractions",significantly stronger green fluorescence
same,relative ALDEFluor fluorescence of PCS2-bead sorted cells,"H358 and HCC4017 cells; H358 and HCC4017, spectrophotometer",fluorescence was higher in bound cells
same,number of cells bound to PCS2-beads,ALDH+ H358 CSCs; ALDH+ sorted population after 2 weeks of growth,very low
same,binding of PCS2-beads to sorted ALDH+ (red) vs ALDH− (green) H358 cells,ALDH+ H358 CSCs; freshly sorted cells,only bound significantly to the red CSCs
same,Plectin expression in PCS2-bound cells vs unbound cells,"[2]; H358, HCC4017, H460, H1299, H2073, H1693, H1993, H1975, RT-QPCR",significantly higher
same,relative expression of SOX2 in PCS2-bead fractions,"[2]; HCC4017, H358, H366, H460, vs unsorted or unbound fractions",increased expression of SOX2
same,CD44 expression in PCS2-coated magnetic-bead bound fractions,[2]; [4],high
same,SOX2 expression in PCS2-coated magnetic-bead bound fractions,[2]; [4],high
same,colonies formed,H358 cells [3],Significantly fewer colonies formed
